The text below walks through data of US7112685B2, “Labeled resiniferatoxin derivatives” (Ortho-McNeil Pharmaceutical, Inc., priority 2000, dated 2006).

Each structure is given as a SMILES string. Like-named read-outs stand apart in the source and are kept apart here.

This assay addresses T1, hVR1 receptors (Homo sapiens, UniProt Q8NER1).
T1 construct: expressed in transfected cells; host or cells: HEK293 cells (membranes)
The assay is described as follows: [3H] RTX Binding Assay (inhibition of [3H] RTX binding to membranes of HEK293 cells transfected with human VR1). How it is done: Iodinated RTX derivatives of the present invention were tested for their ability to inhibit the binding of [^3H] RTX to hVR1 receptors in a [^3H] RTX Binding Assay.
HEK293 cells were transfected with human VRI vanilloid receptors, as described in U.S. patent application Ser. No. 09/292700 to Dubin, A., et. al, filed on Apr. 15, 1999 (herein incorporated by reference), and washed with Hank's Balanced Salt Solution, dissociated with cell dissocation buffer (Sigma), and then centrifuged at 1000 x g for 5 min. Cell pellets were homogenized in cold 20 mM HEPES buffer, pH 7.4, containing 5.8 mM NaCl, 320 mM sucrose, 2 mM MgCl2, […] and 5 mM KCl and centrifuged at 1000 x g for 15 min. The resultant supernate was then centrifuged at 40,000 x g for 15 min. The pelleted membranes were kept in an −80° C. freezer.
The assay procedure was modified from that described in Szallasi, A. and Blumberg, P. M., “[^3H] Resiniferatoxin binding by the vanilloid receptor: specific-related differences, effect of temperature and sulfhydryl reagents” (Naunyn-Schmiedeberg's Arch. Pharmacol., 1993, 347, 84-91). Briefly, about 120 μg protein/ml from membranes were incubated with indicated concentrations of [^3H] RTX in 0.5 ml of the HEPES buffer (pH 7.4) containing 0.25 mg/mL fat acid-free bovine serum albumin at 37° C. for 60 min. The reaction mixture was then cooled to 4° C., added 0.1 mg α1-acid glycoprotein to each sample and incubated at 4° C. for 15 min. The samples were centrifuged at 18500 x g for 15 min. The tip of the microcentrifuge tube containing the pellet was cut off. Bound radioactivity was quantified by scintillation counting. Non-specific binding was tested in the presence of 200 nM unlabeled RTX.
Membrane Incubation with [^3H] RTX and lodinated RTX Derivatives
Membranes were incubated with [^3H] RTX (0.4 nM) and varying concentrations of iodinated RTX derivatives at 37° C. for 60 min. […] RTX binding.

In general, IC50 refers to the point on the concentration scale where inhibition reaches its midpoint.

T1 sequence (Q8NER1 whole entry): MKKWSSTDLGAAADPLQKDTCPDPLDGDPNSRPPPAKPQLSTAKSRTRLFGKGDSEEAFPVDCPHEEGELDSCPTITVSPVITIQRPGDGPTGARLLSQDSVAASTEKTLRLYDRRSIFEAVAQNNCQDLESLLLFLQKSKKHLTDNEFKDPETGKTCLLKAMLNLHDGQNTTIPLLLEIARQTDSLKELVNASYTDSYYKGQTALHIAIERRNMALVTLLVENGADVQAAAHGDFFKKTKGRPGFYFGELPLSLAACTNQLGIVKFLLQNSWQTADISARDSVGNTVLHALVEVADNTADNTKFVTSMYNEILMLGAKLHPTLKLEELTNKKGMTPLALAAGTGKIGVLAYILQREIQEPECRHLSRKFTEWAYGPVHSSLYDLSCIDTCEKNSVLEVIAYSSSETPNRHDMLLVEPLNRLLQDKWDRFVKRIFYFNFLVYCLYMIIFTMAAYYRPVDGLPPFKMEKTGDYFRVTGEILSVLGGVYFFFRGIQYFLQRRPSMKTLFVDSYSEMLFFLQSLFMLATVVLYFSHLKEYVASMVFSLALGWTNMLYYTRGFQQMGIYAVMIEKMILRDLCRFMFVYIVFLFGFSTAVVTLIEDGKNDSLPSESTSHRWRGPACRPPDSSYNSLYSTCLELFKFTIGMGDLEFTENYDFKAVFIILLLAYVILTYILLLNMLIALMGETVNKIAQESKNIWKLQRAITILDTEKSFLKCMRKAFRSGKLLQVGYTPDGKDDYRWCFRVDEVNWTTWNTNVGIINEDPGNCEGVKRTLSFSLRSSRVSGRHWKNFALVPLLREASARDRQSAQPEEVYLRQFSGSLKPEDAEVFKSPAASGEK

Consider `C=C(C)C12CC(C)C34OC(Cc5ccccc5)(OC1C3C=C(COC(=O)Cc1cc(OC)c(OC(C)=O)cc1I)CC1(O)C(=O)C(C)=CC14)O2` (stereo not drawn) [Compound 1, 9,13,14-Orthophenylacetylresiniferonyl-20-(3-acetoxy-4-methoxy-6-Iodophenylacetate)], for which the IC50 is 0.31 ± 0.06 nM.
As to `C=C(C)[C@]12C[C@@H](C)[C@@]34O[C@](Cc5ccccc5)(O[C@@H]1[C@@H]3C=C(COC(=O)Cc1ccc(O)c(OC)c1)C[C@]1(O)C(=O)C(C)=C[C@@H]41)O2` [RTX, resiniferatoxin], the IC50 ([3H] RTX 0.4 nM, 37° C. for 60 min, HEK293 membranes, two experiments, each point in duplicate, read-out: IC50 Value for Binding to a hVR1 Receptor) was determined as 0.09 ± 0.12 nM.
For `C=C(C)C12CC(C)C34OC(Cc5ccccc5)(OC1C3C=C(COC(=O)Cc1cc(OC)c(O)cc1I)CC1(O)C(=O)C(C)=CC14)O2` (stereo not drawn) [Compound 2, 9,13,14-Orthophenylacetylresiniferonyl-20-(3-hydroxy-4-methoxy-6-iodophenylacetate)], the IC50 is 0.22 ± 0.03 nM.
